Test results taken from patent publication US5374649A, “Indole derivatives and pharmaceutical use thereof” (Glaxo S.p.A., priority 1992, dated 1994).

Key:
NMDA induced convulsions = test: inhibition of NMDA induced convulsions in mice (procedure of Chiamulera C et al.); assay type: in vivo; conditions: mouse; iv administration; intracerebroventricular injection of NMDA; read-out: ED50 (dose required to protect 50% of the animals from the convulsive action of NMDA)
Protocol: The ability of compounds of the invention to inhibit NMDA included convulsions in the mouse was determined using the procedure of Chiamulera C et al. Psychopharmacology 1990, 102, 551-552. In this test the ability of the compound to inhibit the generalized seizures induced by an intracerebroventricular injection of NMDA in mice was examined at a number of dose levels. […] This expressed as mg/kg is referred to as the ED50 value.

[1] = molecular target: T1, strychnine insensitive glycine binding site located on the NMDA receptor complex (Rattus norvegicus, UniProt P35439); test: affinity for strychnine insensitive glycine binding site (procedure of Kishimoto H. et al.); conditions: procedure of Kishimoto H. et al. J. Neurochem 1981, 37, 1015-1024
T1 construct: from tissue
Protocol: The potent and selective action of the compounds of the invention at the strychnine- insensitive glycine binding site present on the NMDA receptor complex may be readily determined using conventional test procedures. Thus the ability to bind at the strychnine insensitive glycine binding site was determined using the procedure of Kishimoto H et al. J Neurochem 1981, 37 1015-1024. The selectivity of the action of compounds of the invention for the strychnine insensitive glycine site was confirmed in studies at other ionotropic known excitatory amino acid receptors.
The affinity of the compound of the invention for strychnine insensitvie glycine binding site was determined using the procedure of Kishimoto H. et al J. Neurochem 1981, 37, 1015-1024.

SMILES | pKi [1] | ED50 (NMDA induced convulsions) [mg/kg]
COc1ccc(NC(=O)/C=C/c2c(C(=O)O)[nH]c3cc(Cl)cc(Cl)c23)cc1OC [Example 2f, (E) 3-[2-(3,4-Dimethoxyphenylaminocarbonyl)ethenyl]-4,6-dichloroindole-2-carboxylic acid] | 8.1 | 0.3
O=C(/C=C/c1c(C(=O)O)[nH]c2cc(Cl)cc(Cl)c12)Nc1ccccc1O [Example 2e, (E) 3-[2-(2-Hydroxyphenylaminocarbonyl)ethenyl]-4,6-dichloroindole-2-carboxylic acid] | 8.4 | 
CCOc1ccc(NC(=O)/C=C/c2c(C(=O)O)[nH]c3cc(Cl)cc(Cl)c23)cc1 [Example 2g, (E) 3-[2(4-Ethoxyphenylaminocarbonyl)ethenyl]-4,6-dichloroindole-2-carboxylic acid] | 8.3 | 0.1

Second part, led by results:

pKi [1] | SMILES | ED50 (NMDA induced convulsions) [mg/kg]
8.3 | O=C(/C=C/c1c(C(=O)O)[nH]c2cc(Cl)cc(Cl)c12)Nc1ccc(F)cc1F [Example 2h, (E) 3-[2-(2,4-Difluorophenylaminocarbonyl)ethenyl]-4,6-dichloroindole-2-carboxylic acid] | 0.3
8.0 | O=C(/C=C/c1c(C(=O)O)[nH]c2cc(Cl)cc(Cl)c12)Nc1cc([N+](=O)[O-])ccc1O [Example 2i] | 
